Results taken from the supplement of paper PMC10307832.

Compound: CN(C)C/C=C/C(=O)Nc1cc2c(Nc3ccc(F)c(Cl)c3)ncnc2cc1O[C@H]1CCOC1 [Afatinib]
Test: relative viability (nuclei count vs DMSO), 5 days (fraction); higher = more cells survive
Summary of the method: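 Viability is treated-well nuclei as a fraction of vehicle-well nuclei, reported as the median across plates. Before counting, lung cancer cell lines were kept overnight at 37 °C in 1536-well plates, pinned with five √10-spaced library-drug doses on vehicle-anchored plates, and left 5 days without medium change, then fixed, permeabilised and Hoechst-stained in one step, imaged at 4× and counted by MetaXpress. A plate passed only if control CV was below 25% and at least one doubling occurred.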

Cell Line	relative viability (0.005 µM)	relative viability (0.01581 µM)	relative viability (0.05 µM)	relative viability (0.1581 µM)	relative viability (0.5 µM)
LCLC-97TM1	1.1	0.878	1.01	0.993	0.943
H3255	0.418	0.237	0.244	0.244	0.26
LXF-289	1.01	0.97	0.947	0.94	0.94
UMC-11	1.03	0.955	1.03	0.959	0.983
LC-2-ad	1.06	0.957	1.04	0.956	1.05
SK-MES-1	0.816	0.706	0.568	0.39	0.42
A-427	1.05	0.918	0.99	1.02	1.01
NCI-H322M	0.705	0.495	0.533	0.545	0.419
HCC-366	1.03	1.04	1.03	0.985	0.989
NCI-H1975	0.945	0.851	0.79	0.479	0.336
NCI-H1437	1.02	0.987	0.993	0.984	0.997
NCI-H2009	1.04	0.998	1.06	0.997	1.06
NCI-H1651	1.07	0.949	0.941	0.961	0.915
LCLC-103H	0.962	0.945	0.974	0.945	1.03
NCI-H1666	0.95	0.894	0.75	0.707	0.801
NCI-H1734	0.998	0.979	1.02	0.968	1.03
EPLC-272H	0.915	0.687	0.831	0.718	0.718
NCI-H2023	0.968	0.85	0.898	0.882	0.886
BEN	1.04	0.897	1.05	1.09	1.06

Cell Line	relative viability (0.005 µM)	relative viability (0.01581 µM)	relative viability (0.05 µM)	relative viability (0.1581 µM)	relative viability (0.5 µM)
COR-L 105	0.522	0.387	0.45	0.287	0.309
ABC-1	0.876	0.77	0.876	0.874	0.912
HCC-15	1.04	1.06	1.04	0.979	0.999
NCI-H2170	0.907	0.837	0.445	0.276	0.253
PC-3 [JPC-3]	0.553	0.406	0.443	0.439	0.469
NCI-H1993	0.935	0.75	0.84	0.776	0.692
NCI-H358	0.825	0.566	0.455	0.282	0.302
NCI-H1563	0.992	0.932	0.97	0.895	0.99
EBC-1	1.02	0.976	1.02	0.969	1.01
NCI-H1915	1.06	0.988	1	0.973	0.922
RERF-LC-KJ	0.92	0.938	0.908	0.794	0.831
LOU-NH91	0.784	0.813	0.887	0.73	0.791
NCI-H2347	1.07	1.02	0.976	0.961	0.994
NCI-H2126	1.01	0.932	0.816	0.679	0.693
HCC-827	0.172	0.169	0.212	0.175	0.162
Calu-6	1.09	1	1.02	0.997	0.986
NCI-H3122	0.999	1.01	1.01	0.929	0.999
HOP-62	1.12	0.989	1.05	1.03	1.08
HCC-44	1.08	1	1.01	1.02	0.982
